Article PMC8496086 (RSC Chemical Biology, 2021)

Legend:
[1] = tested on: A549 lung carcinoma cells; assay: MNA production in A549 cells; format: cell-based, human; conditions: 1 and 10 μM compound, 100 μM nicotinamide, 10 μM SAM, 1 h
[2] = tested on: human aortic endothelial cells (HAEC); assay: MNA production in HAEC cells; format: cell-based; conditions: 1 and 10 μM compound, 100 μM nicotinamide, 10 μM SAM, 3 hours
NNMT = conditions: read-out: reported IC50 value; cited from earlier work

CNc1ccc(C(N)=O)cn1 [Peptide 6-MANA, 6-methylamino-nicotinamide]
effect on concentration of MNA [1]: significant reduction of MNA concentration
effect on concentration of MNA [2]: significant reduction of MNA concentration
IC50 (NNMT): 588 ± 75 nM
